# Patent US9205128B2, “Method for inhibiting HIV replication in mammal and human cells” (priority 2010, dated 2015)
# No end group written: not given here.
# What was measured:
# [1] = system: HIV-2 CBL-20 strain; assay: HIV-2 replication in pre-stimulated PBMCs, p24; format: cell-based; details: 7 days
# Protocol: PBMCs were isolated from whole blood of healthy individuals by using Ficoll density gradients. […] Cells were subsequently maintained in PHA-free medium and seeded at 150 000 cells per well in 96-well plates. After 24 h, peptides were added at different concentrations and the cultures were infected with the CBL-20 HIV-2 strain. The cultures were kept for 7 days, being changed every 3 days the medium and the peptides added. Cultures were harvested and supernatants collected to evaluate the presence of the p24 viral protein.
# [2] = biological target: T1, vimentin (Homo sapiens, UniProt P08670); assay: Western blot of vimentin in MT4 cells incubated with peptides; format: cell-based; details: 50 μM peptide, 24 h
# T1 construct: these proteins are endogenous cellular proteins rather than viral; endogenous in cells; host or cells: MT4 cell line (untransduced, shRNA-transduced MT4vim(s), or peptide-treated)
# T1 sequence (P08670 whole entry): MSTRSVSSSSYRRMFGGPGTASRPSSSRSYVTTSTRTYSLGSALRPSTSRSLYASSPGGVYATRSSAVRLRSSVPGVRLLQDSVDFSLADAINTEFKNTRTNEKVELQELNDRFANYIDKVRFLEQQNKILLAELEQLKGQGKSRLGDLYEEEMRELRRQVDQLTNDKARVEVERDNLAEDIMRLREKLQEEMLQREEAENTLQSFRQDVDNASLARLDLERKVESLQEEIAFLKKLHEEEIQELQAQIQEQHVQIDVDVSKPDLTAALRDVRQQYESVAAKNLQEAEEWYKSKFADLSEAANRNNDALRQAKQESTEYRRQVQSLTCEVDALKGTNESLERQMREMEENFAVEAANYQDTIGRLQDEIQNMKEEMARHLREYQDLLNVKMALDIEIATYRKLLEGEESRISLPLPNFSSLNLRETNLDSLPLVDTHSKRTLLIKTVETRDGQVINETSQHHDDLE
# Protocol: The MT4 cell line was incubated at 50 μM of each peptide for 24 h. The vimentin protein was detected by the western blot technique. Cellular extracts were resuspended in 1% sodium dodecyl sulphate (SDS) and applied in a 10% polyacrylamide gel, being further transferred to a Hybond-P […] membrane. For immunoidentification purposes, anti-vimentin and anti-β actin (as control) antibodies were used. An anti-mouse IgG antibody-peroxidase conjugate was used as secondary antibody. The activity of the peroxidase enzyme was visualized by using diaminobenzidine in the presence of hydrogen peroxide and PBS.
# [3] = system: HIV-1; details: PBMCs of infected individuals treated ex vivo; 15d-PGJ2 at 5 μM; vs untreated cells
# Protocol: PBMCs were isolated from whole blood of HIV-1 infected individuals by Ficoll density gradients. […] Replication was evaluated by determining the p24 antigen concentration on culture supernatants by the ELISA method.
# [4] = system: MT4 cells; assay: Cellular penetration of peptides by flow cytometry; format: cell-based, human; details: 5-40 μM, 15, 30 and 60 min
# Protocol: HeLa CD4+ cells were seeded in RPMI medium supplemented at 10% FBS and incubated until reaching 60% confluence of the monolayer. MT4 cells were seeded at 50 000 cells per well in RPMI medium at 10% FBS. Peptides identified as SEQ ID No. 1 and SEQ ID No. 3 were resuspended in injection water and evaluated at 5, 10, and 40 μM concentrations. Peptides were incubated for […] at 37° C. under a 5% CO2 atmosphere, and penetration was evaluated after 15, 30 and 60 min. After each period of time, cells were harvested and immediately analyzed by flow cytometry. Three replicates were analyzed per experimental variant.
# [5] = system: HIV-1; assay: Total virus challenge of MT4 cells, p24 antigen ELISA; format: cell-based; details: HIV-1 Bru, m.o.i. 0.01, 5-day incubation
# [6] = system: vimentin protein; details: Stamatakis et al. 2006; cited from earlier work
# [7] = system: cytoskeletal intermediate filaments (IFs); assay: IFs structural analysis by transmission electron microscopy; format: cell-based, human; details: treated patients (two with SEQ ID No. 1, three with SEQ ID No. 2)
# Protocol: Firstly, MT4vim(s), MT4K-10(s) and MT4 cells were fixed in 3.2% glutaraldehyde for 1 h at 4° C. and then fixed in 2% osmium tetroxide for 1 h at 4° C. They were subsequently washed with 0.1 M phosphate buffered saline (PBS), pH 7.2, and dehydrated at increasing ethanol concentrations (30, 50, 70 and 100%) for 10 min each at 4° C. Inclusion was carried out and ultrathin 40-50 nm-width sections were taken in an ultramicrotome (NOVA, LKB), which were placed on 400-orifices nickel trays. Once the ultrathin cuts were taken and placed on the trays, they were contrasted with saturated uranyl acetate and lead citrate, and further examined under a JEOL JEM 2000 EX (JEOL) microscope. Five microphotographs were analyzed at different magnifications. MT4 cell intact IFs are shown in FIG. 5A, meanwhile these structures appeared shortened in MT4vim(s) MT4K-10(s) cells (FIGS. 5B and C, respectively). […] Inhibition of the viral replication was observed under these conditions. Vimentin or keratin-10 proteins were identified at IFs by immunomicroscopy.
# IFs structure was analyzed by transmission electron microscopy, following the methodology described in Example 3.
# IFs structures were analyzed by transmission electron microscopy, following the methodology described in Example 3. […]
# [8] = system: HIV-1; details: 150 mg per day, 6 months follow-up; two of eight patients (both formulations pooled)
Molecule,HIV-2 replication [1],vimentin band intensity [2],% of HIV-1 inhibition [3],other results
RVTQMNLNDRLASLYDKVHYRIKPTFRRLKWKYKGKFW [Peptide 9],inhibited HIV-2 replication in a dose-dependent manner,decreased intensity,81.3%,–
RVTQMNLNDRLASLYDKVRALEESNYELEGKIKEW [Peptide 8],inhibited HIV-2 replication in a dose-dependent manner,decreased intensity,86.7%,–
KVELQELNDRFANYIDKVRF [Peptide 3],–,–,85.3%,–
RVTQMNLNDRLASLYDKV [Peptide 1],–,–,89.3%,penetration into cells [4]: able to penetrate by their own into the MT4 cells
"CCCCC/C=C/C=C1/C(=O)C=C[C@@H]1C/C=C\CCCC(=O)O [Peptide 15d-PGJ2, prostaglandin cyclopentane 15 deoxy-Δ-^12,14-PGJ2]",–,–,80.1%,HIV replication [5]: inhibits the HIV replication in vitro; binding to vimentin [6]: binds to the vimentin protein
DMEIATYRTLLEGEESRM [Peptide 2],inhibited HIV-2 replication in a dose-dependent manner,–,81.1%,IFs structure [7]: shortened; viral load after treatment [8]: undetectable
